Results from the supplement of paper PMC4862054.

How the values were obtained:
Test in all cases: normalised response (% of control), CellTiter-Glo; higher = more viable cells (100 = DMSO, 0 = benzethonium chloride kill control)
Conditions in all cases: incubation time: 72 h
BT-549 = tested on: BT-549
In short: (§1)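 The table gives the normalised signal for a single concentration in each entry. Breast cancer cell lines were seeded (20 µl suspension) into 384-well plates holding compound at 5 concentrations in 10-fold steps over a compound-specific 10,000-fold range and incubated 72 h, then read for CellTox Green fluorescence (485/520 nm) and CellTiter-Glo luminescence. Normalisation on each plate used 0.1 % DMSO (100) and a positive kill control (0).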

CAL-51 = tested on: CAL-51
In short: as §1

MDA-MB-453 = tested on: MDA-MB-453
In short: as §1

HDQ-P1 = tested on: HDQ-P1
In short: as §1

MDA-MB-468 = tested on: MDA-MB-468
In short: as §1

CAL-120 = tested on: CAL-120
In short: as §1

CAL-85-1 = tested on: CAL-85-1
In short: as §1

MCF-10A = tested on: MCF-10A
In short: as §1

HCC1599 = tested on: HCC1599
In short: as §1

MDA-MB-436 = tested on: MDA-MB-436
In short: as §1

HCC1937 = tested on: HCC1937
In short: as §1

MDA-MB-231 = tested on: MDA-MB-231
In short: as §1

Hs578T = tested on: Hs578T
In short: as §1

DU-4475 = tested on: DU-4475
In short: as §1

SK-BR-3 = tested on: SK-BR-3
In short: as §1

HCC1143 = tested on: HCC1143
In short: as §1

BT-474 = tested on: BT-474
In short: as §1

CAL-148 = tested on: CAL-148
In short: as §1

MFM-223 = tested on: MFM-223
In short: as §1

Row | Compound | normalised response (BT-549) [%] | normalised response (CAL-51) [%] | normalised response (MDA-MB-453) [%] | normalised response (HDQ-P1) [%] | normalised response (MDA-MB-468) [%] | normalised response (CAL-120) [%] | normalised response (CAL-85-1) [%] | normalised response (MCF-10A) [%] | normalised response (HCC1599) [%] | normalised response (MDA-MB-436) [%] | normalised response (HCC1937) [%] | normalised response (MDA-MB-231) [%] | normalised response (Hs578T) [%] | normalised response (DU-4475) [%] | normalised response (SK-BR-3) [%] | normalised response (HCC1143) [%] | normalised response (BT-474) [%] | normalised response (CAL-148) [%] | normalised response (MFM-223) [%]
1 | CN(c1ccccc1CNc1nc(Nc2ccc3c(c2)CC(=O)N3)ncc1C(F)(F)F)S(C)(=O)=O (1 nM) | 100 | 96.2 | 95.4 | 101 | 90.3 | 93 | 94.9 | 96.3 | 98.4 | 106 | 99.5 | 95.4 | 97.8 | 95.9 | 96 | 93 | 95.5 | 91.6 | 89.5
2 | COc1ncc(-c2ccc3nccc(-c4ccnnc4)c3c2)cc1NS(=O)(=O)c1ccc(F)cc1F (1 nM) | 93.5 | 111 | 98.2 | 81.3 | 109 | 93 | 101 | 94.2 | 95.3 | 93.1 | 95.3 | 92.9 | 101 | 103 | 84.6 | 101 | 91.6 | 105 | 109
3 | Nc1nccc(-c2c(-c3ccc(F)cc3)ncn2C2CCCCC2)n1 (1 nM) | 109 | 119 | 95.5 | 101 | 94.1 | 95.7 | 98.8 | 110 | 104 | 100 | 105 | 105 | 104 | 102 | 108 | 109 | 97.9 | 105 | 102
4 | CN(c1ccccc1CNc1nc(Nc2ccc3c(c2)CC(=O)N3)ncc1C(F)(F)F)S(C)(=O)=O (10 nM) | 97 | 102 | 96.6 | 101 | 84.8 | 94.4 | 94.6 | 100 | 91.4 | 92 | 97.5 | 87.9 | 92 | 94.8 | 111 | 99.5 | 92.1 | 101 | 91.4
5 | C[C@@]1(C(=O)Nc2ccc(F)nc2)CCCN1c1nc(Nc2cc(C3CC3)n[nH]2)c2cccn2n1 (10 nM) | 88 | 99.3 | 92.8 | 85.4 | 86.8 | 91.2 | 91.6 | 67.5 | 96.1 | 92.5 | 95.4 | 88.1 | 92.4 | 99.5 | 71.5 | 97.5 | 90.7 | 87.3 | 83.4
6 | Nc1nccc(-c2c(-c3ccc(F)cc3)ncn2C2CCCCC2)n1 (10 nM) | 90.7 | 104 | 106 | 102 | 96 | 102 | 106 | 111 | 86.8 | 95.7 | 100 | 100 | 107 | 107 |  | 110 | 106 | 116 | 110
7 | COc1c(C)cnc(Cn2cnc3c(Cl)nc(N)nc32)c1C [BIIB021] (10 nM) | 99.6 | 116 | 102 | 97.5 | 102 | 99 | 96.9 | 96.6 | 109 | 101 | 105 | 99.3 | 97.6 | 102 |  | 108 | 101 | 94.6 | 102
8 | CC(C)C[C@H](NC(=O)[C@H](Cc1ccccc1)NC(=O)c1cnccn1)B(O)O [Bortezomib] (1 nM) | 98.2 | 77.6 | 97 | 101 | 95 | 102 | 98.8 | 102 | 108 | 90.8 | 98.8 | 104 | 109 | 101 |  | 94.2 | 99.2 | 102 | 103
9 | CS(=O)(=O)OCCCCOS(C)(=O)=O [Busulfan] (100 nM) | 97.2 | 121 | 109 | 99.7 | 106 | 99.1 | 98.1 | 108 | 94.5 | 97.2 | 97.9 | 101 | 105 | 109 | 97.5 | 112 | 101 | 101 | 112
10 | C#Cc1cccc(Nc2ncnc3cc(OC)c(OCCCCCCC(=O)NO)cc23)c1 [CUDC-101] (10 nM) | 101 | 84.9 | 103 | 95.8 | 101 | 99.8 | 92.6 | 97.5 | 93.9 | 105 | 104 | 98.1 | 96.4 | 99 |  | 99.9 | 98 | 87.5 | 100
11 | COc1cccc2c1C(=O)c1c(O)c3c(c(O)c1C2=O)C[C@@](O)(C(C)=O)C[C@@H]3O[C@H]1C[C@H](N)[C@H](O)[C@H](C)O1 [Daunorubicin] (1 nM) | 94.2 | 122 | 108 | 104 | 105 | 96.9 | 96.2 | 107 | 109 | 101 | 99.9 | 105 | 112 | 107 |  | 109 | 106 | 109 | 108
12 | CN1CCN(c2ccc3nc(-c4c(N)c5c(F)cccc5[nH]c4=O)[nH]c3c2)CC1 [Dovitinib] (10 nM) | 91.8 | 77.6 | 88.4 | 96.1 | 97 | 95.6 | 91.5 | 98.3 | 102 | 98.1 | 101 | 98.6 | 97.6 | 97.8 |  | 102 | 102 | 94.9 | 95.1
13 | O=c1[nH]c(=O)n([C@H]2C[C@H](O)[C@@H](CO)O2)cc1F [Floxuridine] (10 nM) | 100 | 122 | 111 | 90.2 | 96.7 | 99.5 | 104 | 105 | 93.1 | 92.5 | 98.2 | 105 | 92.3 | 98.1 |  | 109 | 102 | 110 | 111
14 | O=c1[nH]cc(F)c(=O)[nH]1 [Fluorouracil] (10 nM) | 107 | 104 | 101 | 102 | 105 | 95.1 | 96.1 | 111 | 99.3 | 99.1 | 106 | 107 | 110 | 110 |  | 121 | 103 | 112 | 113
15 | C[C@@H]1C=C2C(=O)O[C@@H]3CC[C@H](C1)[C@]23O [Galiellalactone] (50 nM) | 98.9 | 101 | 108 | 104 | 106 | 102 | 102 | 114 | 98.2 | 106 | 102 | 104 | 104 | 105 | 112 | 107 | 104 | 111 | 114
16 | COC1=C2C[C@@H](C)C[C@H](OC)[C@H](O)[C@@H](C)/C=C(\C)[C@H](OC(N)=O)[C@@H](OC)/C=C\C=C(/C)C(=O)NC(=CC1=O)C2=O [Geldanamycin] (10 nM) | 97.3 | 112 | 106 | 100 | 105 | 102 | 99.6 | 106 | 101 | 104 | 99.9 | 105 | 108 | 105 | 110 | 101 | 106 | 113 | 105
17 | COc1ccc(C2=N[C@@H](c3ccc(Cl)cc3)[C@@H](c3ccc(Cl)cc3)N2C(=O)N2CCNC(=O)C2)c(OC(C)C)c1 [Nutlin-3] (10 nM) | 101 | 86.3 | 100 | 100 | 105 | 98.3 | 101 | 99.6 | 104 | 99.9 | 103 | 100 | 104 | 104 |  | 106 | 97.4 | 102 | 103
18 | CC(=O)O[C@H]1C(=O)[C@@]2(C)[C@H]([C@H](OC(=O)c3ccccc3)[C@]3(O)C[C@H](OC(=O)[C@H](O)[C@@H](NC(=O)c4ccccc4)c4ccccc4)C(C)=C1C3(C)C)[C@]1(OC(C)=O)CO[C@@H]1C[C@@H]2O [Paclitaxel] (1 nM) | 93.1 | 129 | 92.8 | 89.8 | 96.1 | 91.6 | 99.5 | 81.5 | 97.8 | 91.4 | 94.7 | 88.6 | 88.8 | 92.2 |  | 90.4 | 89.5 | 89.2 | 89.5
19 | C[C@@H]1CCN(C(=O)CC#N)C[C@@H]1N(C)c1ncnc2[nH]ccc12 [Tofacitinib] (5 nM) | 97.2 | 122 | 120 | 103 | 104 | 95.7 | 112 | 108 | 115 | 104 | 96.3 | 103 | 103 | 110 |  | 105 | 114 | 111 | 101
20 | FC(F)c1nc2ccccc2n1-c1nc(N2CCOCC2)nc(N2CCOCC2)n1 [ZSTK474] (10 nM) | 95.4 | 75.5 | 101 | 95 | 100 | 96.9 | 92.5 | 103 | 105 | 91.3 | 99.8 | 89.9 | 101 | 101 |  | 97.6 | 98.2 | 99.7 | 100
